Tests used:
[1] = test system: acute hepatic insufficiency induced by acetaminophen; assay: Survival of mice after intraperitoneal acetaminophen (acute hepatic insufficiency)
Procedure: The intraperitoneal injection of acetaminophen into mice induces a severe hepatotoxicity, the degree of which may be evaluated by the survival of the animals, measuring transaminase activities, and macroscopic and microscopic examination of the livers.
The acetaminophen in solution at 100 mg/ml in PBS at pH 7.4 is administered by the intraperitoneal route.
In a first series of experiments, a group of mice received a dose of 1000 mg/kg of acetaminophen; a second group received a dose of 1000 mg/kg of acetaminophen and a dose of 10 mg/kg of MnTBAP administered either 2 h before the acetaminophen or 6 h after; a control group received either MnTBAP alone (10 mg/kg), or PBS alone.
The survival of the animals is monitored for 24 hours after the administration of acetaminophen.
The effect of N-acetyl-L-cysteine (NAC), of CuDIPS, and of MnTBAP on the survival of mice after intraperitoneal injection of 1000 mg/kg of acetaminophen (APAP) was compared.
MnTBAP, NAC, or CuDIPS are administered in the form of a bolus, preventively, 2 hours before (P) or, curatively, 6 hours after (C) the acetaminophen.
The survival of the animals is monitored for 24 hours after administration of acetaminophen.

[2] = test system: acute hepatic insufficiency induced by acetaminophen; assay: Histological study of livers after acetaminophen; type: in vivo; conditions: mice which received acetaminophen, treated with MnTBAP
Text: In each of the groups, the livers of several animals were removed, in order to carry out a histological study.

[3] = test system: ischemic lesions of hepatic grafts; assay: Transaminase release from removed mouse livers in Belzer's preservation fluid; conditions: Belzer's fluid with MnTBAP 10 μg/ml; 4° C.
Procedure: Ischemia of hepatic grafts after their removal and during their preservation at 4° C. causes hepatocytic lesions.
The intensity of the lesions may be evaluated on the concentration of transaminases in the preservation fluid.
Mouse livers were surgically removed, rinsed with Belzer's preservation fluid supplemented or otherwise with MnTBAP at the concentration of 10 μg/ml. The transaminases were then assayed in the fluid at various times after removal of the organ.

O=C(O)c1ccc(-c2c3nc(c(-c4ccc(C(=O)O)cc4)c4ccc([n-]4)c(-c4ccc(C(=O)O)cc4)c4nc(c(-c5ccc(C(=O)O)cc5)c5ccc2[n-]5)C=C4)C=C3)cc1.[Mn+3] [MnTBAP, Mn(III) tetrakis(5,10,15,20-benzoic acid)porphyrin]
percentage of surviving animals ([1]; Group V: APAP 1000 mg/kg, MnTBAP 10 mg/kg (P), time 20 h): 65.7% | percentage of surviving animals ([1]; Group V: APAP 1000 mg/kg, MnTBAP 10 mg/kg (P), time 22 h): 65.7% | percentage of surviving animals ([1]; Group V: APAP 1000 mg/kg, MnTBAP 10 mg/kg (P), time 24 h): 62.9% | percentage of surviving animals ([1]; Group VI: APAP 1000 mg/kg, MnTBAP 20 mg/kg (P), time 0 h): 100% | percentage of surviving animals ([1]; Group VI: APAP 1000 mg/kg, MnTBAP 20 mg/kg (P), time 6 h): 100% | percentage of surviving animals ([1]; Group VI: APAP 1000 mg/kg, MnTBAP 20 mg/kg (P), time 8 h): 100% | percentage of surviving animals ([1]; Group VI: APAP 1000 mg/kg, MnTBAP 20 mg/kg (P), time 9 h): 100% | percentage of surviving animals ([1]; Group VI: APAP 1000 mg/kg, MnTBAP 20 mg/kg (P), time 10 h): 100% | percentage of surviving animals ([1]; Group VI: APAP 1000 mg/kg, MnTBAP 20 mg/kg (P), time 11 h): 100% | percentage of surviving animals ([1]; Group VI: APAP 1000 mg/kg, MnTBAP 20 mg/kg (P), time 12 h): 100% | percentage of surviving animals ([1]; Group VI: APAP 1000 mg/kg, MnTBAP 20 mg/kg (P), time 13 h): 100% | percentage of surviving animals ([1]; Group VI: APAP 1000 mg/kg, MnTBAP 20 mg/kg (P), time 14 h): 100% | percentage of surviving animals ([1]; Group VI: APAP 1000 mg/kg, MnTBAP 20 mg/kg (P), time 15 h): 90% | percentage of surviving animals ([1]; Group VI: APAP 1000 mg/kg, MnTBAP 20 mg/kg (P), time 16 h): 90% | percentage of surviving animals ([1]; Group VI: APAP 1000 mg/kg, MnTBAP 20 mg/kg (P), time 17 h): 90% | percentage of surviving animals ([1]; Group VI: APAP 1000 mg/kg, MnTBAP 20 mg/kg (P), time 18 h): 90% | percentage of surviving animals ([1]; Group VI: APAP 1000 mg/kg, MnTBAP 20 mg/kg (P), time 20 h): 90% | percentage of surviving animals ([1]; Group VI: APAP 1000 mg/kg, MnTBAP 20 mg/kg (P), time 22 h): 90% | percentage of surviving animals ([1]; Group VI: APAP 1000 mg/kg, MnTBAP 20 mg/kg (P), time 24 h): 90% | percentage of surviving animals ([1]; Group VII: APAP 1000 mg/kg, MnTBAP 10 mg/kg (C), time 0 h): 100% | percentage of surviving animals ([1]; Group VII: APAP 1000 mg/kg, MnTBAP 10 mg/kg (C), time 6 h): 100% | percentage of surviving animals ([1]; Group VII: APAP 1000 mg/kg, MnTBAP 10 mg/kg (C), time 8 h): 100% | percentage of surviving animals ([1]; Group VII: APAP 1000 mg/kg, MnTBAP 10 mg/kg (C), time 9 h): 100% | percentage of surviving animals ([1]; Group VII: APAP 1000 mg/kg, MnTBAP 10 mg/kg (C), time 10 h): 94% | percentage of surviving animals ([1]; Group VII: APAP 1000 mg/kg, MnTBAP 10 mg/kg (C), time 11 h): 94% | percentage of surviving animals ([1]; Group VII: APAP 1000 mg/kg, MnTBAP 10 mg/kg (C), time 12 h): 81% | percentage of surviving animals ([1]; Group VII: APAP 1000 mg/kg, MnTBAP 10 mg/kg (C), time 13 h): 69% | percentage of surviving animals ([1]; Group VII: APAP 1000 mg/kg, MnTBAP 10 mg/kg (C), time 14 h): 69% | percentage of surviving animals ([1]; Group VII: APAP 1000 mg/kg, MnTBAP 10 mg/kg (C), time 15 h): 69% | percentage of surviving animals ([1]; Group VII: APAP 1000 mg/kg, MnTBAP 10 mg/kg (C), time 16 h): 56% | percentage of surviving animals ([1]; Group VII: APAP 1000 mg/kg, MnTBAP 10 mg/kg (C), time 17 h): 56% | percentage of surviving animals ([1]; Group VII: APAP 1000 mg/kg, MnTBAP 10 mg/kg (C), time 18 h): 56% | percentage of surviving animals ([1]; Group VII: APAP 1000 mg/kg, MnTBAP 10 mg/kg (C), time 20 h): 56% | percentage of surviving animals ([1]; Group VII: APAP 1000 mg/kg, MnTBAP 10 mg/kg (C), time 22 h): 56% | percentage of surviving animals ([1]; Group VII: APAP 1000 mg/kg, MnTBAP 10 mg/kg (C), time 24 h): 44% | percentage of surviving animals ([1]; Group VIII: APAP 1000 mg/kg, MnTBAP 20 mg/kg (C), time 0 h): 100% | percentage of surviving animals ([1]; Group VIII: APAP 1000 mg/kg, MnTBAP 20 mg/kg (C), time 6 h): 100% | percentage of surviving animals ([1]; Group VIII: APAP 1000 mg/kg, MnTBAP 20 mg/kg (C), time 8 h): 100% | percentage of surviving animals ([1]; Group VIII: APAP 1000 mg/kg, MnTBAP 20 mg/kg (C), time 9 h): 100% | percentage of surviving animals ([1]; Group VIII: APAP 1000 mg/kg, MnTBAP 20 mg/kg (C), time 10 h): 100% | percentage of surviving animals ([1]; Group VIII: APAP 1000 mg/kg, MnTBAP 20 mg/kg (C), time 11 h): 100% | percentage of surviving animals ([1]; Group VIII: APAP 1000 mg/kg, MnTBAP 20 mg/kg (C), time 12 h): 90% | percentage of surviving animals ([1]; Group VIII: APAP 1000 mg/kg, MnTBAP 20 mg/kg (C), time 13 h): 90% | percentage of surviving animals ([1]; Group VIII: APAP 1000 mg/kg, MnTBAP 20 mg/kg (C), time 14 h): 90% | percentage of surviving animals ([1]; Group VIII: APAP 1000 mg/kg, MnTBAP 20 mg/kg (C), time 15 h): 90% | percentage of surviving animals ([1]; Group VIII: APAP 1000 mg/kg, MnTBAP 20 mg/kg (C), time 16 h): 90% | percentage of surviving animals ([1]; Group VIII: APAP 1000 mg/kg, MnTBAP 20 mg/kg (C), time 17 h): 80% | percentage of surviving animals ([1]; Group VIII: APAP 1000 mg/kg, MnTBAP 20 mg/kg (C), time 18 h): 80% | percentage of surviving animals ([1]; Group VIII: APAP 1000 mg/kg, MnTBAP 20 mg/kg (C), time 20 h): 70% | percentage of surviving animals ([1]; Group VIII: APAP 1000 mg/kg, MnTBAP 20 mg/kg (C), time 22 h): 70% | percentage of surviving animals ([1]; Group VIII: APAP 1000 mg/kg, MnTBAP 20 mg/kg (C), time 24 h): 70% | death of animals ([1]; MnTBAP alone 10 mg/kg ip, no acetaminophen, 24 hours): No death | apoptotic lesions in liver, versus untreated animals [2]: a lot fewer apoptotic lesions | release of transaminases by the liver into preservation fluid [3]: reduction in the release of transaminases
